Experimental data taken from US20220378738A1, “(+)-TRANS TETRAHYDROCANNABINOL ((+)-TRANS-THC) FOR USE AS A MEDICAMENT” (GW Research Limited, priority 2019, published 2022).
Marks after values point to notes of the source that are not given here.

Tests used:
[1] = test system: mouse model of pain, the hotplate test; assay: Hotplate test (52° C.), withdrawal threshold; assay type: in vivo; settings: for Withdrawal threshold (sec) Mean +/− SEM: N 13
Procedure: Mice underwent a minimum habituation period of 7 days prior to study commencement. Naïve mice were acclimatised to the procedure room in their home cages, with food and water available ad libitum.
Animals were treated with either treatment vehicle, (+)-trans-THC at 3, 10, 30 and 300 mg/kg at 10 ml/kg i.p. or Morphine 10 mg/kg or Morphine vehicle (Saline) at 10 ml/kg i.p.
Animals were placed onto a hot plate set at 52° C. and time to withdrawal threshold (first response of lifting, licking front or hind paws or trying to escape) was taken at 1-hour post treatment, or at 0.5 hour after the positive control.
Animals were culled by a schedule 1 method, immediately after the measurement.
Data were analysed by comparing withdrawal thresholds back to Vehicle treated group.

[2] = test system: mouse supramaximal electroshock seizure (MES) model of generalized seizures; assay: Maximal electroshock (MES) test, number of tonic convulsions; assay type: in vivo; settings: for % change from vehicle (number of tonic clonic seizures after MES): 250 mg/kg I.P., pre-treatment time 30 mins, N 16
Procedure: Mice were administered MES (30 mA, rectangular current: 0.6 ms pulse width, 0.2 s duration, 50 Hz) via corneal electrodes connected to a constant current shock generator (Ugo Basile: type 7801) to reliably produce tonic hind limb convulsions. The number of tonic convulsions was recorded.
Sixteen mice were studied per group. The test was performed blind.
The test substance, (+)-trans-THC, was evaluated at 4 doses (3, 10, 30 and 300 mg/kg), administered i.p. 60 minutes before MES, and compared with a vehicle control group (administered under the same experimental conditions).
Valproate (positive control) was administered at 250 mg/kg i.p. 30 minutes before MES, was used as a reference substance and was compared with a vehicle group (administered i.p. 60 minutes before MES).
Data was analysed by comparing treated groups with the appropriate vehicle control using 2-tailed Fisher's Exact Probability tests (p<0.05 considered significant).

[3] = depending on the assay; cited from earlier work

## CCCCCc1cc(O)c2c(c1)OC(C)(C)[C@H]1CCC(C)=C[C@H]21 (relative stereo) [(+)-trans-THC, (+)-trans-tetrahydrocannabinol]
[1]; 3 mg/kg I.P., 1-hour post treatment
  Withdrawal threshold (sec) Mean +/− SEM: 11.05 ± 0.72 s
[1]; 10 mg/kg I.P., 1-hour post treatment
  Withdrawal threshold (sec) Mean +/− SEM: 12.63 ± 0.81 s
[1]; 30 mg/kg I.P., 1-hour post treatment
  Withdrawal threshold (sec) Mean +/− SEM: 13.38 ± 1.03 s
[1]; hotplate, 3-300 mg/kg i.p.
  Anti-nociceptive effect in an animal model of pain (overall conclusion): exhibits an anti-nociceptive effect
[2]; 3, 10, 30 and 300 mg/kg i.p.
  Anti-convulsant effect in the MES model (overall conclusion): no anti-convulsant effect

## CN1CC[C@]23c4c5ccc(O)c4O[C@H]2[C@@H](O)C=C[C@H]3[C@H]1C5 [Morphine]
[1]; 10 mg/kg I.P., 0.5 hour after treatment
  Withdrawal threshold (sec) Mean +/− SEM: 20.25 +/− 1.71 *** sec
[1]; 10 mg/kg I.P., 0.5 hour after treatment, listed as morphine
  Withdrawal threshold (sec) Mean +/− SEM: significant increase in the withdrawal threshold compared to vehicle

## CCCCCc1cc(O)c2c(c1)OC(C)(C)[C@@H]1CCC(C)=C[C@@H]21 [(−)-trans-THC, (−)-trans-tetrahydrocannabinol]
[3]
  Potency relative to the (+)-trans-THC isomer: 6-100 times

## CCCC(CCC)C(=O)O [Valproate]
[2]
  % change from vehicle (number of tonic clonic seizures after MES): 100.0%
[2]; listed as valproate
  % change from vehicle (number of tonic clonic seizures after MES): 100%
